From publication PMC8948406 (Journal for Immunotherapy of Cancer, 2022)
Where two headings read alike, the source gives them in different places.

Legend:
[1] = for Cmax, Clast and tmax versus other part and niraparib monotherapy: first dose
advanced solid tumors = settings: cited from earlier work
[2] = Dostarlimab serum pharmacokinetics; assay type: in vivo, human; settings: coadministration of niraparib, carboplatin–paclitaxel, or bevacizumab
[3] = target: PD-1 receptors on CD3+ T-cells (Homo sapiens, UniProt Q15116); assay: PD-1 receptor occupancy by flow cytometry; assay type: cell-based; settings: by end of treatment; parts A, B and D
Chain of PD-1 receptors on CD3+ T-cells (Q15116 25-288): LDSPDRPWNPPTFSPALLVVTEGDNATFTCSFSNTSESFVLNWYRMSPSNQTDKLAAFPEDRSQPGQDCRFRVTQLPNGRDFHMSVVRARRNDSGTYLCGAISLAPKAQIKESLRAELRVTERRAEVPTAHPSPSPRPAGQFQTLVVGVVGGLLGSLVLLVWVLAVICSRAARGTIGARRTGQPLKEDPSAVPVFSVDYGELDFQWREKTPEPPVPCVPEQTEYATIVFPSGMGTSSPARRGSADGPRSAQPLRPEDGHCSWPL

non-squamous NSCLC = settings: combination with chemotherapy; cited from earlier work

Compound: NC(=O)c1cccc2cn(-c3ccc([C@@H]4CCCNC4)cc3)nc12 [niraparib, [3S]-3-[4-[7-(aminocarbonyl)-2H-indazol-2-yl]phenyl] piperidine]
- Cmax lower in part C than in part A ([1]; 200 mg): 47.1%
- Exposures (Cmax and AUClast) versus monotherapy ([1]; 200 mg, part A): comparable to monotherapy
- AUClast higher in part C than in part A ([1]; 300 mg QD): approximately 46%
- AUClast lower than niraparib monotherapy ([1]; 300 mg, part A): 9.6%
- AUClast higher than niraparib monotherapy ([1]; 300 mg, part C): 31.6%
- Cmax, Clast and tmax versus other part and niraparib monotherapy ([1]; 300 mg): consistent across both parts and similar to PK data for niraparib monotherapy
- Cmax, Clast and tmax versus other part and niraparib monotherapy ([1]; 300 mg, listed as Niraparib): consistent in parts A and C
- Variability of niraparib exposure ([1]; regardless of dose and cohort): ~ 50%
- Variability of exposure, monotherapy data (advanced solid tumors): up to 66%

Compound: dostarlimab: PD-1 inhibitor; IgG4 humanized monoclonal antibody that binds with high affinity to PD-1
- Effect of the combination partners on dostarlimab PK [2]: no observed impact
- Overall mean PD-1 receptor occupancy [3]: 99.0%

Compound: pembrolizumab: anti-PD-1 antibody, given with chemotherapy in the cited trials
- Grade ≥3 neutropenia (non-squamous NSCLC): 15.8%
